These results are taken from publication PMC12040169 (PLOS Biology, 2025).

As a reminder, the viability is a read-out of living cells in per cent, often relative to untreated cells.

A short description of the series: in vitro. Particulars: human, hela cells, % viability.
With `COc1ccccc1CC(=O)N[C@@H]1CCN(Cc2cccnc2)C[C@H]1O` [CBK307200], the viability at 28.5 h, 10 µM came out at 100%.

Take `Cn1ccnc1CN1C[C@@H]2CN(C(=O)C3CCCC3)C[C@]2(C(=O)O)C1` [CBK307201]: the viability at 28.5 h, 10 µM was found to be 102%. For `CCCn1ccnc1CN1CCCC(CC2CC2)(C(=O)O)C1` (stereo not shown) [CBK307205], the viability at 28.5 h, 10 µM stood at 100%. Then `CCCCSc1nc(N)cc(N2CCCC(C(=O)N3CCOCC3)C2)n1` (stereo not shown) [CBK307210], with 75.2%; and `COCCn1ccnc1C1CCCN(C(=O)COc2ccccc2Cl)C1` (stereo not shown) [CBK307211], with 90.2%; and `CCn1cc(NC(=O)NC2CCN(c3ncccc3C#N)CC2)c(C)n1` [CBK307213], with 93.1%. Then `Cc1nc(C(=O)N2CCn3nc(C(O)Cc4ccccc4)cc3C2)cs1` (stereo not shown) [CBK307214], with 98.5%; and `CN(C)c1ccc(-c2ncnn2CC(F)(F)F)cn1` [CBK307215], with 88%. With `CCCS(=O)(=O)N1CCCC(Cc2ccc(F)cc2F)(C(=O)OCC)C1` (stereo not shown) [CBK307221] the figure was 85.5%; with `CCn1cc(S(=O)(=O)NCc2ccc3[nH]c4c(c3c2)CCCC4)cn1` [CBK307225], 100%. With `Cc1ccc(OC2(C(=O)N3CCCC3C(F)(F)F)CCNCC2)cc1` (stereo not shown) [CBK307226], the viability at 28.5 h, 10 µM was found to be 82.5%. Then `COc1ccccc1-n1nc(-c2ccncc2)nc1C1CCOCC1` [CBK307229], with 95%; and `CCN(CC1CCOCC1)C(=O)Cn1c(C)cc(=O)c2ccccc21` [CBK307230], with 88.7%. As to `COc1cccc(C(=O)NCCC(=O)N2CCc3c(nc[nH]c3=O)C2)c1` [CBK307231], the viability at 28.5 h, 10 µM was found to be 103%. Then `CNc1nc(C)c(C(=O)N2CCCC(COc3ccc(F)cc3)C2)s1` (stereo not shown) [CBK307234], with 103%. For `COCCc1nc(C2CCC2)n(Cc2ccccc2C)n1` [CBK307238], the viability at 28.5 h, 10 µM was 91.8%. `CCN(CC1CCN(C)C1)C(=O)c1cc(COc2cccc(F)c2)[nH]n1` (stereo not shown) [CBK307239]: the viability at 28.5 h, 10 µM was determined as 88.8%.

As to `COCCNc1nc2c(c(N3CCCC(CO)C3)n1)CCNCC2` (stereo not shown) [CBK307242], the viability at 28.5 h, 10 µM came to 111%. Then `CCn1ncnc1CN1CCOc2ccc(CO)cc2C1` [CBK307245], with 80.7%. With `COc1nccc(N2CCC3(CC(=O)NC3=O)C2)c1C#N` (stereo not shown) [CBK307246] the figure was 108%; with `CCC(NC(=O)CCc1cccnc1)c1cn2cccnc2n1` (stereo not shown) [CBK307247], 81.7%. Then `CCC(CNC(=O)c1coc(COc2ccc3sc(C)nc3c2)n1)OC` (stereo not shown) [CBK307248], with 72.3%. In the case of `Cn1c(=O)n(C)c2cc(CNC(=O)CC3COCCN3)ccc21` (stereo not shown) [CBK307252], the viability at 28.5 h, 10 µM amounted to 103%.

For `CNC(=O)CCc1ccccc1NC(=O)NCCSc1ncn[nH]1` [CBK307253], the viability at 28.5 h, 10 µM is 89.9%. Then `CCCn1ccnc1CNc1nc2c(s1)c(C)nn2C` [CBK307254], with 84.3%; and `COc1nccc(N2CCC3(CCC(=O)N(CCO)C3)CC2)c1C#N` [CBK307255], with 117%; and `CSCC1CCCN(C(=O)c2cc3ncc(CCO)cn3n2)C1` (stereo not shown) [CBK307256], with 79.6%. With `Cc1cc(C)n2ncc(C(=O)N3CCCCC3c3ccccn3)c2n1` (stereo not shown) [CBK307257] the figure was 90.4%. Then `COCCOCC(=O)N1CC(=O)N(c2ccccc2C#N)CC1C` (stereo not shown) [CBK307258], with 91.7%. For `CCCc1nc(NC(CC)c2nc(C)c(C)s2)c2cnn(C)c2n1` (stereo not shown) [CBK307261], the viability at 28.5 h, 10 µM was 89.1%. With `O=C(NC1CC(=O)N(CCc2ccc(F)cc2)C1)c1cn2ccsc2n1` (stereo not shown) [CBK307263] the figure was 100%; with `O=C1CCC2(CCN1)CCN(Cc1cccc(-c3ccco3)c1)CC2` [CBK307264], 115%; with `O=C(c1cc2ncc(CCO)cn2n1)N1CCC(c2ccccc2Cl)C1` (stereo not shown) [CBK307266], 105%. Turning to `Cn1nnc2cc(C(=O)NCCN3CCCCC3CO)ccc21` (stereo not shown) [CBK307268], the viability at 28.5 h, 10 µM was 84.3%. With `CCO[C@H]1CN(C)C[C@@H]1NC(=O)c1cccc2c1NCCC2` [CBK307269], the viability at 28.5 h, 10 µM worked out at 90.4%. Then `Cc1ccc2c(c1)OC(C)(C)CC2NS(=O)(=O)N1CCN(C)CC1` (stereo not shown) [CBK307271], with 103%. With `O=C(NCCc1noc(CO)n1)N(Cc1ccsc1)C1CCCCC1` [CBK307273] the figure was 98.5%. With `Cn1c(=O)n(C)c2cc(CNC(=O)C3NCCc4[nH]cnc43)ccc21` (stereo not shown) [CBK307274] the figure was 89.2%; with `CCOC(=O)c1cnc2c(Cl)cc(Cl)cc2c1NCCN1CCOCC1` [CBK307278], 83.5%; with `CN1CCC(NC(=O)c2cccc(OCC(=O)N3CCCCC3)c2)C1=O` (stereo not shown) [CBK307281], 78.3%. For the molecule `Cc1c[nH]c(CN(C)C(=O)c2cccc(NC(=O)C3CCCC3)c2)n1` [CBK307282], the viability at 28.5 h, 10 µM stood at 91.4%. Turning to `COc1ccc(CN2CC(C(=O)O)C2)cc1Cn1cncn1` [CBK307284], the viability at 28.5 h, 10 µM is 110%. Regarding `CCCN1CC(NS(=O)(=O)c2cc(-n3cccn3)ccc2OC)CC1=O` (stereo not shown) [CBK307285], the viability at 28.5 h, 10 µM came out at 107%. With `Cn1ncc(N2CCC(CNC(=O)c3cc(F)ccc3Cl)C2)cc1=O` (stereo not shown) [CBK307286] the figure was 92.4%; with `CN1CCC(Cc2nc(-c3cccc(OC(F)F)c3)n(CCO)n2)CC1` [CBK307294], 90.2%. With `COc1cccc2c(=O)n(CCCn3nc(C)nc3C)cnc12` [CBK307295] the figure was 97%; with `COCCn1c(CO)nnc1[C@H]1C[C@@H](NC(=O)c2ccc(C)cc2F)C1` [CBK307296], 101%; with `COc1cccc(CN2CCCC(NC(=O)c3csc(C(C)=O)c3)C2)c1` (stereo not shown) [CBK307297], 87.6%. With `Cc1ccc(Cc2cnc(NC(=O)CN3CCCCC3)s2)cc1Cl` [CBK307299] the figure was 84.9%. For the molecule `Cc1cc(-c2cn3cc(C(=O)N4CCCC4)nc3c(=O)n2C)c(C)o1` [CBK307300], the viability at 28.5 h, 10 µM was found to be 83.3%. Then `CCOC(=O)C1CCCN(Cc2c[nH]nc2-c2ccc(OC)cc2F)C1` (stereo not shown) [CBK307304], with 91.1%; and `CCCCn1ncnc1-c1cnc2ccnn2c1C` [CBK307305], with 114%.

Consider `O=C(c1nc[nH]n1)N1CCN(c2nccc(CCC(F)(F)F)n2)CC1` [CBK307306], for which the viability at 28.5 h, 10 µM stood at 106%. With `Cc1cc2[nH]c(=O)oc2cc1S(=O)(=O)NCCN1CCCCC1CO` (stereo not shown) [CBK307307] the figure was 80.9%.

As for `CCn1cc(-c2nc3cc(S(=O)(=O)NC(C)C)ccc3n2C(C)C)cn1` [CBK307311], the viability at 28.5 h, 10 µM came to 98.7%. In the case of `CCN(CCc1nc2cc(OC)ccc2[nH]1)C(=O)c1ccc(=O)n(C)c1` [CBK307312], the viability at 28.5 h, 10 µM came to 77%. Then `CCNC(=O)NC1CC(C)(C)Cc2c1cnn2-c1ccc(OC)cc1` (stereo not shown) [CBK307313], with 90.6%. With `Cc1n[nH]c(C)c1-c1ccc2c(cnn2C)c1` [CBK307314] the figure was 70.3%; with `CC(=O)OCc1c(C)cc(C)c(CN(C)C(C)c2ccncn2)c1C` (stereo not shown) [CBK307315], 95.1%.

As for `Cc1nn(CCNC(=O)C2CC(=O)N(Cc3ccccn3)C2)c(C)c1Cl` (stereo not shown) [CBK307316], the viability at 28.5 h, 10 µM stood at 85.1%. Then `COc1nc(-c2ccc(N(C)C)nc2)nn1C` [CBK307317], with 100%. In the case of `c1cnn(CCCNc2nc3nonc3nc2N2CCCCCC2)c1` [CBK307318], the viability at 28.5 h, 10 µM was determined as 110%. With `CCN(CCO)C(=O)c1coc(COc2ccc3sc(C)nc3c2)n1` [CBK307321] the figure was 89.7%. As for `COCCn1cnnc1CCNC(=O)Cc1cccc(O)c1` [CBK307322], the viability at 28.5 h, 10 µM is 112%.

Take `O=c1cc(N2CCOCC2)cnn1CCCCOc1ccccc1` [CBK307327]: the viability at 28.5 h, 10 µM was found to be 97.9%. On to `COc1ccc(C(NC(=O)c2c(C)nc3sccn23)C2CC(O)C2)cn1` (stereo not shown) [CBK307330], for which the viability at 28.5 h, 10 µM stood at 95.3%.

For the molecule `COc1ccc(Cl)cc1CN(C)C(=O)c1cc(C(C)C)n2ncnc2n1` [CBK307331], the viability at 28.5 h, 10 µM is 84.7%.

With `O=C(c1ccc(N2CC=CCC2)nc1)N1CCC(N2CCOCC2)CC1` [CBK307334], the viability at 28.5 h, 10 µM stood at 80%. Turning to `O=C(O)C1(Oc2ccc3ncccc3c2)CCN(CC2CCOC2)CC1` (stereo not shown) [CBK307336], the viability at 28.5 h, 10 µM amounted to 93.2%.

Consider `CSc1nnc(CC2CCN(C(=O)c3cccc(N)c3)CC2)n1C` [CBK307339], for which the viability at 28.5 h, 10 µM was 77.8%. Regarding `COCC(=O)N1CCC(Oc2ccc3ncccc3c2)(C(=O)O)CC1` [CBK307340], the viability at 28.5 h, 10 µM worked out at 103%. Then `Cc1ccc(OCc2occc2C(=O)N2CCC(O)(CN(C)C)C2)cc1` (stereo not shown) [CBK307341], with 95.6%; and `Cc1ccc(-n2cccn2)cc1S(=O)(=O)N1CCNCC1C` (stereo not shown) [CBK307344], with 85.1%; and `c1ccc(N2CCN(Cc3cncn3C3CCCCC3)CC2)nc1` [CBK307345], with 109%. Then `Cc1sc2ncn(CC3(O)CCCNC3)c(=O)c2c1-c1ccc(F)cc1` (stereo not shown) [CBK307346], with 96%. With `O=C(NCC(F)F)c1cn2cc(-c3cccs3)n(CC3CC3)c(=O)c2n1` [CBK307347] the figure was 105%; with `Cc1ncccc1C(=O)NC(CC(C)C)c1nnc2n1CCNCC2` (stereo not shown) [CBK307348], 80.5%; with `CCOC(=O)c1cn([C@H](CO)CCSC)cc(Oc2ccccc2)c1=O` [CBK307349], 98.9%.

With `CCN(Cc1c[nH]nc1-c1ccc(OC)cc1F)CC1CCCO1` (stereo not shown) [CBK307350], the viability at 28.5 h, 10 µM stood at 102%.

Regarding `CC1(C)Cc2c(cnn2-c2ccccc2)C(NS(=O)(=O)C2CC2)C1` (stereo not shown) [CBK307351], the viability at 28.5 h, 10 µM was found to be 102%. With `Nc1nc(C2CC(N)C2)cc(N2CCC(Oc3ccccc3Cl)CC2)n1` (stereo not shown) [CBK307356] the figure was 88.6%; with `COCCn1ccnc1C1CCN(C(=O)COc2cccc(F)c2)CC1` [CBK307362], 91.3%.
